These results are taken from US10174057B2, “Metallacrown complexes and methods of making the same” (THE REGENTS OF THE UNIVERSITY OF MICHIGAN, priority 2013, dated 2019).

Series [1] in a line: Absorption spectra in methanol. Conditions: 298 K. The format is physicochemical. The source says:
FIG. 2 is a graph of the absorption spectra of Ln(III) MC complexes (2.04·10^−5 M, Ln(III)=Gd, Nd, Yb, Er) and quinaldichydroxamic acid (quinHA) (2.42·10^−4 M) in methanol at 298 K, where the absorption spectrum of quinHA was multiplied by 16 times;
Upon deprotonation and formation of the metallacrown framework, Ln(III)[12-MC-4]2[24-MC-8], a broad absorption appears in the near-visible region with an apparent maximum at 380 nm (ε≈5.5·10^4 M^−1 cm^−1) and cutoff at 470 nm. In FIG. 2, the results are shown for the Gd(III), Nd(III), Yb(III), and Er(III).

Series [2] can be described thus: Emission spectra and ligand energy levels (singlet, triplet, CT). It counts as physicochemical. The conditions noted are these: for energy of the triplet state: determined on the 0-0 transition. The protocol:
FIG. 3 is a graph depicting the corrected and normalized emission spectra of quinHA (10 mg/mL) under excitation at 290 in methanol at 77 K and Gd(III) MC (10 mg/mL) under excitation at 290 nm or 340 nm in methanol at 298 K and 77 K;
(§1) Luminescence data were collected on samples that were placed into 2.4 mm i.d. quartz capillaries or quartz Suprasil cells. Emission and excitation spectra were measured on a Horiba-Jobin-Yvon Fluorolog 3 spectrofluorimeter equipped with either a visible photomultiplier tube (PMT) (220-800 nm, R928P; Hamamatsu), a NIR solid-state InGaAs detector cooled to 77 K (800-1600 nm, DSS-IGA020L; Jobin-Yvon), or NIR PMTs (950-1450 nm, H10330-45; 950-1650 nm, H10330-75; Hamamatsu). All spectra were corrected for instrumental functions.
At 77 K, strong green luminescence centered at 510 nm with a weak band in the 325-460 nm range. The latter band disappeared upon enforcing a delay of 100 μs, so it can be assigned to a short-lived fluorescence while the green emission is phosphorescence. The energy of the triplet state of quinHA, determined on the 0-0 transition, can therefore be estimated as 21 000 cm−1 (476 nm).
The energy gap between ground and excited states for Gd(III) is very high and, therefore, it is impossible for the Gd(III) ion in the corresponding metallacrown complex to be sensitized with 300-400 nm excitation. It is believed that this feature can be used to determine the energy levels of the metallacrown complexes in the absence of energy transfer to the Ln(III) ion. The Gd(III) metallacrown complex was exposed to UV excitation into the ligand-based charge transfer band at 340 nm at room temperature, resulting in a weak broad-band emission with a maximum at 580-590 nm (FIG. 3). Lowering the temperature to 77 K led to a slight sharpening of the band and a shift of the maximum to 545-555 nm (FIG. 3). […] The position of the triplet state determined from the spectrum of Gd(III) metallacrown complex was the same as for quinHA within experimental error, 20 920 cm^−1 (478 nm). The position of the lowest excited singlet and the ligand-based charge transfer (CT) states were determined from the intersection of the absorption and emission (fluorescence) spectra of quinHA and Gd^3+[12-MC-4]2[24-MC-8], respectively, and found to be located at 29 850 cm^−1 (335 nm) and 21 560 cm^−1 ([…]). A proposed schematic diagram of the quinHA ligand's energy levels (singlet, triplet and CT) with respect to the energy levels of Yb(III), Nd(III) and Er(III) lanthanide ions and possible energy migration paths are shown in FIG. 4.

A short description of series [3]: Quantum yields in the NIR, absolute method using an integration sphere. The conditions noted are these: 298 K, excitation 370 nm. The format is physicochemical. The protocol: as §1
Quantum yields in the NIR were determined with a Fluorolog 3 spectrofluorimeter according to an absolute method using an integration sphere (GMP SA). Each sample was measured several times under slightly different experimental conditions. Estimated experimental error for quantum yields determination is 10%.
(§2) Luminescence spectra were recorded for the Ln(III) metallacrown complexes (Ln(III)=Yb, Nd, Er) in the solid state and in solution (CH3OH/CD3OD) using excitation at 420 nm or 370 nm.

A short description of series [4]: Luminescence lifetimes under excitation at 355 nm. The format is physicochemical. Conditions: for τobs: 298 K, excitation 355 nm; for q (inner sphere hydration number): calculated from kCH3OH and kCD3OD. On the procedure: as §1
Luminescence lifetimes were determined under excitation at 355 nm provided by a Nd:YAG laser (YG 980; Quantel), while the signal was detected in the NIR by the aforementioned PMT (H10330-75). The output signal from the detectors was then fed to a 500 MHz bandpass digital oscilloscope (TDS 754C; Tektronix) and then transferred to a PC for treatment with Origin 8®. Luminescence lifetimes are averages of at least three independent measurements.
as §2

Series [5] concerns HeLa (Human Epithelial Ovarian Carcinoma) cells. The series can be described thus: NIR epifluorescence microscopy on HeLa cells. The format is cell-based. The protocol: The preparation of the Yb(III) Metallacrowns and the description of the NIR Epifluorescence Microscopy are applicable for both experiments.
Yb^3+[12-MC-4]2[24-MC-8] was prepared as described above, and was dissolved in DMSO at an appropriate concentration, and was used as such or was incubated with beads for incorporation therein.
NIR epifluorescence microscopy was performed with an Axio Observer Z1 fluorescence inverted microscope (Zeiss, Le Pecq, France) equipped with an EMCCD Evolve 512 photometric camera (Roper Scientific). The EMCCD Evolve 512 photometric camera was linked to a computer driving the acquisition software Axiovision (Zeiss). The inverted microscope was equipped with Zeiss objectives (immersion Plan Apochromat 63x (Numerical Aperture (NA)=1.4), Plan Neofluar 40x (NA=0.75), Plan Apochromat 20x (NA=0.8)). A Zeiss HXP-120 light source (metal halide) was used as the excitation system, and was combined with a UV cube filter unit as follows: 377 nm band pass 50 nm filter for excitation, and long pass 805 nm filter for Yb(III) emission in the NIR range. […]
NIR Epifluorescence Microscopy was used to observe the treated cells after 24 hours of incubation with Yb^3+[12-MC-4]2[24-MC-8] and the untreated cells. […] As illustrated in both FIGS. 8E and 8F, the emission in the NIR range for the untreated HeLa cells was not detected. […]

Setting [6] is: excitation 290 nm, 77 K, methanol.
Setting [7] is: intersection of absorption and emission spectra.

For `O=C(NO)c1ccc2ccccc2n1` [quinHA, quinaldichydroxamic acid], the melting point lay within 146 to 148 °C. The “long wavelength absorption cutoff” value in series [1] was 340 nm. The “energy of the triplet state” value in series [2] was 21 000 cm^−1. Also, in series [2] (setting [6]), the “green luminescence (phosphorescence) centre” value stood at 510 nm and the “weak band (short-lived fluorescence)” value is 325-460 nm. Also, the “emission upon UV excitation” value in series [2] (excitation 290 nm, room temperature, methanol) is “did not display any detectable emission”. In addition, the “position of the lowest excited singlet state” value in series [2] (setting [7]) was 29 850 cm^−1.

For the compound ErZn16(quinHA)16(OTf)3 [Er(III)MC], the “QLn/%L (quantum yield)” value in series [3] (CD3OD, 1 mg/mL) is on record as 3.60(6) · 10^−2%; in series [3] (CH3OH, 1 mg/mL), 9.9(3) · 10^−4%; in series [3] (Solid), 4.2(1) · 10^−2%. The τobs is 11.40(3) μs in series [4] (CD3OD, 1 mg/mL); 1.25(1) μs in series [4] (CH3OH, 1 mg/mL); 5.73(2) μs in series [4] (Solid).

Turning to “GdZn16(quinHA)16(OTf)3 [Gd(III) metallacrown complex]”, the emission maximum in series [2] (77 K, time delay of 100 μs) is 510 nm; in series [2] (excitation 340 nm, 77 K) it was 545-555 nm; in series [2] (excitation 340 nm, room temperature, weak broad-band emission), 580-590 nm. The “energy of the triplet state” value in series [2] is given as 20 920 cm^−1. Also, the “position of the ligand-based charge transfer (CT) state” value in series [2] (setting [7]) is 21 560 cm^−1.

For NdZn16(quinHA)16(OTf)3 [Nd(III)MC], the “QLn/%L (quantum yield)” value was 1.38(1) % in series [3] (CD3OD, 0.1 mg/mL); 1.35(1) % in series [3] (CD3OD, 1 mg/mL); 0.40(1) % in series [3] (CH3OH, 0.1 mg/mL); 0.38(1) % in series [3] (CH3OH, 1 mg/mL); 1.13(4) % in series [3] (Solid). Moreover, the τobs in series [4] (CD3OD, 0.1 mg/mL) is 4.00(1) μs; in series [4] (CD3OD, 1 mg/mL) it was 4.11(3) μs; in series [4] (CH3OH, 0.1 mg/mL), 1.16(1) μs; in series [4] (CH3OH, 1 mg/mL), 1.16(1) μs; in series [4] (Solid), 1.79(2) μs. In addition, the “q (inner sphere hydration number)” value in series [4] (CH3OH, 0.1 mg/mL) is 0; in series [4] (CH3OH, 1 mg/mL), 0.

Turning to YbZn16(quinHA)16(OTf)3 [Yb(III)MC], the “QLn/%L (quantum yield)” value is 2.91(7) % in series [3] (CD3OD, 0.1 mg/mL); 2.88(2) % in series [3] (CD3OD, 1 mg/mL); 0.27(1) % in series [3] (CH3OH, 0.1 mg/mL); 0.25(1) % in series [3] (CH3OH, 1 mg/mL); 2.44(4) % in series [3] (Solid). In addition, in series [5] (Experiment 1: 1 μM, 24 hours, λex=377 nm, long pass 805 nm, 500 ms exposure), the “emission in the NIR range of treated cells” value is given as “unambiguously detected”. Further, the “Yb(III) emission in the NIR range of treated cells” value in series [5] (both experiments (1 μM 24 h; 5 μM 11-12 h), short exposure times) is given as “unambiguously detected”. The τobs was 144.6(5) μs in series [4] (CD3OD, 0.1 mg/mL); 150.7(2) μs in series [4] (CD3OD, 1 mg/mL); 15.14(4) μs in series [4] (CH3OH, 0.1 mg/mL); 14.88(1) μs in series [4] (CH3OH, 1 mg/mL); 47.8(4) μs in series [4] (Solid). Besides, the “q (inner sphere hydration number)” value in series [4] (CH3OH, 0.1 mg/mL) was 0; in series [4] (CH3OH, 1 mg/mL) it was 0.

As a reminder, the melting point is the temperature, or range, at which the solid turns liquid.
